Laboratory results from article PMC12738692, “Identification, characterization, and structure-activity relationship of the ASIC3-selective peptide WRPRFa” (Communications Chemistry, 2025).
Read-outs that look alike come from different tables or passages of the source. Where no end group is shown, it is not given here.

Experiments:
[1] = biological target: T1, human ASIC3 (Homo sapiens, UniProt Q9UHC3); test: cell-based
T1 construct: CHO cells stably expressing human ASIC3 (NM_004769.1)
T1 sequence (Q9UHC3 1-531): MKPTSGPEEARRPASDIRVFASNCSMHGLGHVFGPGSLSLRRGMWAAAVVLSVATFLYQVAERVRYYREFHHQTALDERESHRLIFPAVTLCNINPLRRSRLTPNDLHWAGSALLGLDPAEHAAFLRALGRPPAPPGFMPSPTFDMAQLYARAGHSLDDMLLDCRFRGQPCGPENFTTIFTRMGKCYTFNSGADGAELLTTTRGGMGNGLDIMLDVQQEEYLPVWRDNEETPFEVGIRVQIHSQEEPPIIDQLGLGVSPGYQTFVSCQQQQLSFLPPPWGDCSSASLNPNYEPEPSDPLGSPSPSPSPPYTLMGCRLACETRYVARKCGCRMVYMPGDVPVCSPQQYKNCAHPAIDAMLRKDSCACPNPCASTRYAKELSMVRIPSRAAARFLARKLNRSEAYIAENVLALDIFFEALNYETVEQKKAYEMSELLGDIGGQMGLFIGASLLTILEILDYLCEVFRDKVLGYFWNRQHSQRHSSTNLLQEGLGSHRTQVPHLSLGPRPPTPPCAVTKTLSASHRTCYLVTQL

[2] = biological target: T1, human ASIC3; format: cell-based; conditions: 30 µM, QPatch II
[3] = biological target: T1, human ASIC3; test: Time-dependence of WRPRFa wash off from activated (pH 6.3) and resting (pH 8.0) ASIC3; format: cell-based
Method: Next, we assessed the rate at which WRPRFa leaves the channel from the activated and closed states. We preincubated cells with WRPRFa to load channels with peptide, then used two different protocols to remove the peptide. For dissociation from the activated state, we preincubated cells at pH 8.0 with 30 µM WRPRFa, then continuously applied pH 6.3 without WRPRFa to activate the channels while washing off bound peptide. HEK cells poorly tolerate long periods of acid application and sodium influx, so acid application was kept to 1 min. […] The first decrease of current likely arose from desensitization of unbound channels, and possibly also from an initial dissociation of peptide from activated channels, which subsequently desensitized.
For dissociation from resting state channels, we continuously applied pH 8.0 without peptide to remove WRPRFa. Every 20 s the cells were given a 5 s application of pH 6.3 to quantify the remaining sustained current. A 5 s activation was used to minimize wash-off from the activated state, which was deemed negligible based on the observed off-rate under the pH 6.3 condition. The sustained current was about 95% gone after 3 min, with a time constant of 43.5 s (95% CI: 39.0–48.4 s) (Fig. 3D and E). […]

WRPRF-NH2 [WRPRFa]
EC50 [1]: 6.22 µM | channels affected ([1]; 100 µM, MPC): ~90% | channels affected [2]: 80% | current decrease within first 10 s at pH 6.3 ([3]; activated state wash off): about 22% | sustained current gone after 3 min ([3]; pH 8.0 wash off): about 95%
